In PubChem BioAssay AID449764 (Southern Research Specialized Biocontainment Screening …, 2010):

What follows are compounds tested on Mycobacterium tuberculosis H37Rv growth inhibition, no glycerol (assay: Mycobacterium tuberculosis H37Rv growth inhibition, no glycerol, confirmatory dose response (AID 449764;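 also: growth read after 7 days of incubation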)). Settings: not given.

Going from O=c1cc2[nH]c3ccccc3c(=O)n2nc1-c1ccccc1 to c1ccc(-c2nc3nonc3nc2-c2ccccc2)cc1, the IC50 rises from 10.4 µM to 28.9 µM (2.8-fold).

First: Cc1ccc(C(=O)C[n+]2cc(-c3ccc(C)cc3)n3c2CCCCC3)cc1
Second: O=C(c1ccc(CNc2c(N3CCCC3)c(=O)c2=O)cc1)N1CC=C(c2ccccc2)CC1
The IC50 of the first is 16-fold higher: 22.5 µM for the first, 1.43 µM for the second. The second is the more potent here.

Going from Cc1ccc2c(c1)c1c3n2CCN=C3CCC1 to Cc1ccc2[nH]c(C(=O)NN=C3CCCCC3)c(-c3ccccc3)c2c1, the IC50 rises from 10.5 µM to 33.6 µM (3.2-fold).

Clc1ccc2c(c1)C(c1ccccc1Cl)=NCc1nnc(N3CCN(CCOc4ccccc4)CC3)n1-2 and CCN1CCN(CCCNC(=O)c2ccc(/C=C3/Oc4ccccc4N(Cc4cccc(C)c4)C3=O)cc2)CC1 are within 1.5-fold of each other in IC50: 34.8 µM for the first, 45.2 µM for the second.

First: Cc1ccc2nc(=O)c(NNc3ccccc3)cnc2c1
Second: O=C(CSC1=NC(=O)C(c2ccccc2)C(=O)N1)Nc1ccccc1Cl (centres undefined)
The IC50 of the first is 4.9-fold higher: 35.3 µM for the first, 7.27 µM for the second.

Compared with CCCCOC(=O)CSc1nnc(-c2ccc(Cl)cc2Cl)o1, COc1ccc(-c2nnc(SCC(=O)N3CCc4ccccc4C3)o2)cc1 is higher in IC50: < 0.2 µM for the first, 30.6 µM for the second. The first is the more potent here.

Going from Cc1ccc(C2=NNC3(CCOC(C)(C)C3)S2)cc1 (centres undefined) to O=C(C1CC1)N1CCCC(c2ccc(Cl)cc2)=N1, the IC50 rises from 27.1 µM to 42.3 µM (1.6-fold).

Compared with O=[N+]([O-])c1ccc(Sc2cc[n+]([O-])c3ccccc23)c([N+](=O)[O-])c1, Cc1nc([N+](=O)[O-])c(Br)n1CC(=O)c1ccc2ccccc2c1 is 3.6-fold lower in IC50: 40.5 µM for the first, 11.2 µM for the second. The second is the more potent here.

C/C(=N\Nc1ccc(Cl)c(Cl)c1)c1ccc(-n2ccnc2)cc1 and CC(=O)Nc1ccc(N2C(C(C)=O)=NN(c3ccc(Cl)cc3)C2c2sccc2C)cc1 (centres undefined) are within 1.5-fold of each other in IC50: 87.2 µM for the first, 66.6 µM for the second.

Compared with CCCCCCCCn1sccc1=O, CCOC(=O)c1sc2ncnc(NCC(c3cccs3)N(C)C)c2c1C (centres undefined) is 20-fold higher in IC50: 2.06 µM for the first, 42 µM for the second. The first is the more potent here.

Going from CCOC(=O)Oc1c(OC)cc(C(=O)O[C@@H]2C[C@@H]3CN4CCc5c([nH]c6cc(OC)ccc56)[C@H]4C[C@@H]3[C@H](C(=O)OC)[C@H]2OC)cc1OC to CCN(CC)CCCNc1nc2cc(OC)c(OC)cc2c2nc(-c3ccccc3)nn12, the IC50 falls from 26.5 µM to 11.1 µM (2.4-fold). The second is the more potent here.

CC1(C)CC(NC(=O)c2ccc(Cl)c(S(=O)(=O)N(Cc3ccccc3)c3ccccc3)c2)CC(C)(C)N1 and COC(=O)C1=C(C)N(Cc2ccccc2)C(=NCc2cccc(Cl)c2)N[C@H]1c1ccccc1 are within 1.5-fold of each other in IC50: 28.3 µM for the first, 20.4 µM for the second.

Compared with COC(=O)CN1C(c2ccc(Cl)cc2)=Nc2ccc(Cl)cc2C1c1ccccc1 (centres undefined), COC(=O)COc1ccc(-c2nn(C)c(=O)c3ccccc23)cc1 is 1.8-fold lower in IC50: 23 µM for the first, 13.1 µM for the second. The second is the more potent here.

O=c1cc(CCl)nc(Cc2c(Cl)cccc2Cl)[nH]1 and CCOC(=O)COc1ccc2c(c1)C(=O)CC(C)(c1cccnc1)O2 (centres undefined) are within 1.5-fold of each other in IC50: 10.5 µM for the first, 13.4 µM for the second.

Going from O=C(NC(=S)N1CCc2ccccc21)c1ccc(Br)o1 to CC(C)Cc1ccc(C(C)C(N)=NCCc2ccccc2)cc1 (centres undefined), the IC50 rises from 10.5 µM to 24.1 µM (2.3-fold).

First: COc1ccc(-c2nc(NC(=O)Cn3ccc(C(F)(F)F)n3)sc2C)cc1
Second: COC(=O)C(C)Oc1ccc2c(c1)O/C(=C\c1ccco1)C2=O (centres undefined)
The IC50 of the first is 3.9-fold higher: 44.6 µM for the first, 11.3 µM for the second.

CC(C)NC(=O)c1onc(CSc2ccc(F)c(F)c2)c1C(=O)O and OC(CNCCc1ccc(C(F)(F)F)cc1)COC(c1ccccc1)c1ccccc1 (centres undefined) are within 1.5-fold of each other in IC50: 17.8 µM for the first, 19.7 µM for the second.

Same assay, conditions: measured here: IC90 growth inhibition

First: O=c1cc2[nH]c3ccccc3c(=O)n2nc1-c1ccccc1
Second: c1ccc(-c2nc3nonc3nc2-c2ccccc2)cc1
The IC90 of the first is 2.6-fold lower: 15 µM for the first, 39.4 µM for the second.

Compared with Cc1ccc(C(=O)C[n+]2cc(-c3ccc(C)cc3)n3c2CCCCC3)cc1, O=C(c1ccc(CNc2c(N3CCCC3)c(=O)c2=O)cc1)N1CC=C(c2ccccc2)CC1 is 16-fold lower in IC90: 25.4 µM for the first, 1.62 µM for the second.

First: Cc1ccc2c(c1)c1c3n2CCN=C3CCC1
Second: Cc1ccc2[nH]c(C(=O)NN=C3CCCCC3)c(-c3ccccc3)c2c1
The IC90 of the first is 3.3-fold lower: 16 µM for the first, 53.3 µM for the second.

Clc1ccc2c(c1)C(c1ccccc1Cl)=NCc1nnc(N3CCN(CCOc4ccccc4)CC3)n1-2 and CCN1CCN(CCCNC(=O)c2ccc(/C=C3/Oc4ccccc4N(Cc4cccc(C)c4)C3=O)cc2)CC1 are within 1.5-fold of each other in IC90: 46.1 µM for the first, 48.1 µM for the second.

Going from Cc1ccc2nc(=O)c(NNc3ccccc3)cnc2c1 to O=C(CSC1=NC(=O)C(c2ccccc2)C(=O)N1)Nc1ccccc1Cl (centres undefined), the IC90 falls from > 100 µM to 24.2 µM.

Going from CCCCOC(=O)CSc1nnc(-c2ccc(Cl)cc2Cl)o1 to COc1ccc(-c2nnc(SCC(=O)N3CCc4ccccc4C3)o2)cc1, the IC90 rises from 7.21 µM to 45.3 µM (6.3-fold).

Compared with Cc1ccc(C2=NNC3(CCOC(C)(C)C3)S2)cc1 (centres undefined), O=C(C1CC1)N1CCCC(c2ccc(Cl)cc2)=N1 is 1.5-fold higher in IC90: 41.3 µM for the first, 63.5 µM for the second.

First: O=[N+]([O-])c1ccc(Sc2cc[n+]([O-])c3ccccc23)c([N+](=O)[O-])c1
Second: Cc1nc([N+](=O)[O-])c(Br)n1CC(=O)c1ccc2ccccc2c1
The IC90 of the first is 4.4-fold higher: 56.1 µM for the first, 12.7 µM for the second.

C/C(=N\Nc1ccc(Cl)c(Cl)c1)c1ccc(-n2ccnc2)cc1 and CC(=O)Nc1ccc(N2C(C(C)=O)=NN(c3ccc(Cl)cc3)C2c2sccc2C)cc1 (centres undefined) are within 1.5-fold of each other in IC90: 95.6 µM for the first, 83.9 µM for the second.

Compared with CCCCCCCCn1sccc1=O, CCOC(=O)c1sc2ncnc(NCC(c3cccs3)N(C)C)c2c1C (centres undefined) is 20-fold higher in IC90: 2.83 µM for the first, 57 µM for the second.

COc1ccc(-c2cc(-c3ccc(OC)cc3)[nH]n2)cc1 and COC(=O)COc1ccc(-c2nn(C)c(=O)c3ccccc23)cc1 cannot be ordered by IC90: > 50 µM for the first, 58.5 µM for the second.

Compared with CCOC(=O)Oc1c(OC)cc(C(=O)O[C@@H]2C[C@@H]3CN4CCc5c([nH]c6cc(OC)ccc56)[C@H]4C[C@@H]3[C@H](C(=O)OC)[C@H]2OC)cc1OC, CCN(CC)CCCNc1nc2cc(OC)c(OC)cc2c2nc(-c3ccccc3)nn12 is 3.1-fold lower in IC90: 39.1 µM for the first, 12.8 µM for the second.

Going from CC1(C)CC(NC(=O)c2ccc(Cl)c(S(=O)(=O)N(Cc3ccccc3)c3ccccc3)c2)CC(C)(C)N1 to COC(=O)C1=C(C)N(Cc2ccccc2)C(=NCc2cccc(Cl)c2)N[C@H]1c1ccccc1, the IC90 falls from 43.4 µM to 26.6 µM (1.6-fold).

COC(=O)CN1C(c2ccc(Cl)cc2)=Nc2ccc(Cl)cc2C1c1ccccc1 (centres undefined) and OC(CNCCc1ccc(C(F)(F)F)cc1)COC(c1ccccc1)c1ccccc1 (centres undefined) are within 1.5-fold of each other in IC90: 24.8 µM for the first, 23.1 µM for the second.

First: O=c1cc(CCl)nc(Cc2c(Cl)cccc2Cl)[nH]1
Second: CCOC(=O)COc1ccc2c(c1)C(=O)CC(C)(c1cccnc1)O2 (centres undefined)
The IC90 of the first is higher: > 100 µM for the first, 32.5 µM for the second.

First: O=C(NC(=S)N1CCc2ccccc21)c1ccc(Br)o1
Second: CC(C)Cc1ccc(C(C)C(N)=NCCc2ccccc2)cc1 (centres undefined)
The IC90 of the first is 1.8-fold lower: 15.5 µM for the first, 27.8 µM for the second.

First: COc1ccc(-c2nc(NC(=O)Cn3ccc(C(F)(F)F)n3)sc2C)cc1
Second: COC(=O)C(C)Oc1ccc2c(c1)O/C(=C\c1ccco1)C2=O (centres undefined)
The IC90 of the first is 2.9-fold higher: 50.4 µM for the first, 17.2 µM for the second.

CC(C)NC(=O)c1onc(CSc2ccc(F)c(F)c2)c1C(=O)O showed an IC90 of 22.9 µM.
